Laboratory results as given in ChEMBL document CHEMBL5046301, “pH-Responsive Antimicrobial Peptide with Selective Killing Activity for Bacterial Abscess Therapy” (J Med Chem, 2022).
The source made the active and inactive calls. The rule behind the calls is not given here.

Experiments:
[1] = system: Mus musculus; experiment: Antiinflammatory activity in ICR cutaneous abscess mouse model assessed as reduction in IL-1alpha expression in serum at 5 mg/kg,ip administered twice a day measured after 72 hrs by ELISA (reference value: 9.9 +/ 0.42 10^1pg/ml); type: functional
[2] = system: Mus musculus; experiment: Antiinflammatory activity in ICR cutaneous abscess mouse model assessed as reduction in IL-2 expression in serum at 5 mg/kg,ip administered twice a day measured after 72 hrs by ELISA (reference value: 1.53 +/ 0.06 10^3pg/ml); type: functional
[3] = system: Pseudomonas aeruginosa; experiment: Antimicrobial activity against Pseudomonas aeruginosa ATCC 27853 infected in ICR cutaneous abscess mouse model assessed as complete epidermis structure at 5 mg/kg,ip administered twice a day measured after 3 days by hematoxylin and eosin staining based analysis; type: functional, organism-based; conditions: time 3.0 day
[4] = system: Pseudomonas aeruginosa; experiment: Antimicrobial activity against Pseudomonas aeruginosa ATCC 27853 infected in ICR cutaneous abscess mouse model assessed as reduction in necrotic tissue area in infection site at 5 mg/kg,ip administered twice a day measured after 3 days by hematoxylin and eosin staining based analysis; type: functional, organism-based; conditions: time 3.0 day
[5] = system: Mus musculus; experiment: Antiinflammatory activity in ICR cutaneous abscess mouse model assessed as reduction in IL-1beta expression in serum at 5 mg/kg,ip administered twice a day measured after 72 hrs by ELISA (reference value: 9.9 +/ 0.47 10^1pg/ml); type: functional
[6] = system: Mus musculus; experiment: Antiinflammatory activity in ICR cutaneous abscess mouse model assessed as reduction in TNF-alpha expression in serum at 5 mg/kg,ip administered twice a day measured after 72 hrs by ELISA (reference value: 1.01 +/ 0.46 10^3 pg/ml); type: functional
[7] = Hemolytic activity against human RBC assessed as hemoglobin release at pH 6.5 incubated for 1 hrs; type: toxicity, cell-based; conditions: erythrocyte, pH 6.5, 1 h
[8] = system: Pseudomonas aeruginosa; experiment: Antibacterial activity against Pseudomonas aeruginosa ATCC 27853 assessed as inhibition of bacterial growth at pH 6.5 incubated for 24 hrs by NCCLS protocol based method; type: functional
[9] = system: Staphylococcus aureus; experiment: Antibacterial activity against Staphylococcus aureus ATCC 25923 assessed as inhibition of bacterial growth at pH 6.5 incubated for 24 hrs by NCCLS protocol based method; type: functional
[10] = system: Pseudomonas aeruginosa; experiment: Antibacterial activity against Pseudomonas aeruginosa ATCC 27853 assessed as inhibition of bacterial growth at pH 7.4 incubated for 24 hrs by NCCLS protocol based method; type: functional
[11] = Hemolytic activity in human RBC assessed as hemoglobin release at pH 7.4 incubated for 1 hr; type: toxicity, cell-based; conditions: erythrocyte, pH 7.4, 1 h
[12] = system: Staphylococcus aureus; experiment: Antibacterial activity against methicillin-resistant Staphylococcus aureus ATCC 43300 assessed as inhibition of bacterial growth at pH 6.5 incubated for 24 hrs by NCCLS protocol based method; type: functional
[13] = system: Salmonella typhimurium; experiment: Antibacterial activity against Salmonella enterica subsp. enterica serovar Typhimurium C77-31 assessed as inhibition of bacterial growth at pH 7.4 incubated for 24 hrs by NCCLS protocol based method; type: functional
[14] = system: Salmonella typhimurium; experiment: Antibacterial activity against Salmonella typhimurium ATCC 14028 assessed as inhibition of bacterial growth at pH 6.5 incubated for 24 hrs by NCCLS protocol based method; type: functional, Salmonella enterica subsp. enterica serovar Typhimurium; conditions: Salmonella enterica
[15] = system: Staphylococcus epidermidis; experiment: Antibacterial activity against Staphylococcus epidermidis ATCC 12228 assessed as inhibition of bacterial growth at pH 6.5 incubated for 24 hrs by NCCLS protocol based method; type: functional
[16] = system: Escherichia coli; experiment: Antibacterial activity against Escherichia coli ATCC 25922 assessed as inhibition of bacterial growth at pH 7.4 incubated for 24 hrs by NCCLS protocol based method; type: functional
[17] = system: Staphylococcus aureus; experiment: Antibacterial activity against methicillin-resistant Staphylococcus aureus ATCC 43300 assessed as inhibition of bacterial growth at pH 7.4 incubated for 24 hrs by NCCLS protocol based method; type: functional
[18] = system: Escherichia coli; experiment: Antibacterial activity against Escherichia coli ATCC 25922 assessed as inhibition of bacterial growth at pH 6.5 incubated for 24 hrs by NCCLS protocol based method; type: functional
[19] = system: Staphylococcus aureus; experiment: Antibacterial activity against Staphylococcus aureus ATCC 25923 assessed as inhibition of bacterial growth at pH 7.4 incubated for 24 hrs by NCCLS protocol based method; type: functional
[20] = Cytotoxicity against mouse RAW264.7 cells assessed as inhibition of cell growth at pH 7.4 measured after 24 hrs by MTT assay; type: toxicity, cell-based
[21] = system: Staphylococcus epidermidis; experiment: Antibacterial activity against Staphylococcus epidermidis ATCC 12228 assessed as inhibition of bacterial growth at pH 7.4 incubated for 24 hrs by NCCLS protocol based method; type: functional
[22] = system: Salmonella typhimurium; experiment: Antibacterial activity against Salmonella typhimurium ATCC 14028 assessed as inhibition of bacterial growth at pH 7.4 incubated for 24 hrs by NCCLS protocol based method; type: functional, Salmonella enterica subsp. enterica serovar Typhimurium; conditions: Salmonella enterica
[23] = system: Staphylococcus aureus; experiment: Antibacterial activity against Staphylococcus aureus ATCC 29213 assessed as inhibition of bacterial growth at pH 6.5 incubated for 24 hrs by NCCLS protocol based method; type: functional
[24] = system: Salmonella typhimurium; experiment: Antibacterial activity against Salmonella enterica subsp. enterica serovar Typhimurium C77-31 assessed as inhibition of bacterial growth at pH 6.5 incubated for 24 hrs by NCCLS protocol based method; type: functional
[25] = Cytotoxicity against mouse RAW264.7 cells assessed as inhibition of cell growth at pH 6.5 measured after 24 hrs by MTT assay; type: toxicity, cell-based
[26] = system: Staphylococcus aureus; experiment: Antibacterial activity against Staphylococcus aureus ATCC 29213 assessed as inhibition of bacterial growth at pH 7.4 incubated for 24 hrs by NCCLS protocol based method; type: functional
[27] = Ratio of MHC for hemolytic activity against human RBC assessed as hemoglobin release at pH 6.5 to MHC for hemolytic activity against human RBC assessed as hemoglobin release at pH 7.4; type: toxicity, cell-based, Erythrocyte; conditions: human red blood cells (RBC)

Substance | MHC10 [7] | MIC [8] | MIC [9] | MIC [10] | MHC10 [11] | MIC [12] | MIC [13] | MIC [14] | MIC [15] | MIC [16] | MIC [17] | MIC [18] | MIC [19] | IC50 at 24 h [20] | MIC [21] | MIC [22] | MIC [23] | MIC [24] | IC50 at 24 h [25] | MIC [26] | further results
COLISTIN |  |  |  |  |  |  |  |  |  |  |  |  |  |  |  |  |  |  |  |  | Activity [1]: 7.95 10^1pg/ml; Activity [2]: 1.11 10^3pg/ml; Activity [3]: Active; Activity [4]: Active; Activity [5]: 7.23 10^1pg/ml; Activity [6]: 8.06 10^2pg/ml
H-DLDHLIPHVIHGLVHAIHH-NH2 | > 128 µM | > 64 µM | > 64 µM | > 64 µM | > 128 µM | > 64 µM | > 64 µM | > 64 µM | > 64 µM | > 64 µM | > 64 µM | 32 µM | > 64 µM | > 128 µM | > 64 µM | > 64 µM | > 64 µM | > 64 µM | > 128 µM | > 64 µM | 
H-ELEHLIPHVIHGLVHAIHH-NH2 | > 128 µM | > 64 µM | > 64 µM | > 64 µM | > 128 µM | > 64 µM | > 64 µM | > 64 µM | > 64 µM | > 64 µM | > 64 µM | 32 µM | > 64 µM | > 128 µM | > 64 µM | > 64 µM | > 64 µM | > 64 µM | > 128 µM | > 64 µM | 
H-FLDHLIPHVIHGLVHAIHH-NH2 | > 128 µM | 8 µM | > 64 µM | > 64 µM | > 128 µM | > 64 µM | > 64 µM | 16 µM | > 64 µM | > 64 µM | > 64 µM | 4 µM | > 64 µM | 67.9 µM | > 64 µM | > 64 µM | > 64 µM | 16 µM | 67.9 µM | > 64 µM | 
H-FLFHLIPHVIHGLVHAIHH-NH2 | 8 µM | 2 µM | 2 µM | 64 µM | 16 µM | 2 µM | 64 µM | 16 µM | 2 µM | 4 µM | 4 µM | 2 µM | 4 µM | 12.3 µM | 4 µM | 64 µM | 4 µM | 8 µM | 4.79 µM | 4 µM | selectivity ratio [27]: 0.5
